Laboratory results from ChEMBL document CHEMBL3045889 (Pest Manag Sci, 2012).

Test system: Fusarium graminearum
Test: Antifungal activity against Fusarium graminearum JT04 assessed as inhibition of mycelial growth
Format: functional, organism-based

`COC(=O)Nc1nc2ccccc2[nH]1` [CARBENDAZIM] gave an MIC greater than 200 µg/mL.
